Target: SARS-CoV-2 3CL-protease (Severe acute respiratory syndrome coronavirus 2, UniProt P0DTD1)
Assay: SARS-CoV-2 3C-Like (3CL) Protease Fluorescence Assay (FRET)
Assay type: biochemical
Conditions: SARS-CoV-2 3CL-protease 10 nM, 30 min preincubation at RT, substrate 40 μM

SMILES | IC50
CCCOC[C@H](NC(=O)c1cc2c(OC)cccc2[nH]1)C(=O)N1C[C@]2(C[C@H]1C#N)C(=O)Nc1ccccc12 [Example 126] | < 100 nM
C#CCOC[C@H](NC(=O)c1cc2c(OC)cccc2[nH]1)C(=O)N1C[C@]2(C[C@H]1C#N)C(=O)Nc1ccccc12 [Example 127] | < 100 nM
CC(C)(C)OC(=O)NC[C@H](NC(=O)c1cc2c(F)cc(F)cc2[nH]1)C(=O)N1C[C@]2(C[C@H]1C#N)C(=O)Nc1ccccc12 [Example 128] | > 1000 nM
N#C[C@@H]1C[C@@]2(CN1C(=O)[C@H](COCc1cnn[nH]1)NC(=O)c1cc3c(F)cc(F)cc3[nH]1)C(=O)Nc1ccccc12 [Example 129] | > 1000 nM
C[C@@H](CC(=O)N[C@@H](CC(C)(C)C)C(=O)N1C[C@]2(C[C@H]1C#N)C(=O)Nc1ccccc12)NC(=O)OCc1ccccc1 [Example 130] | 100 to 1000 nM
CCCC[C@H](NC(=O)c1cnn(C(C)(C)C)c1)C(=O)N1C[C@]2(C[C@H]1C#N)C(=O)Nc1ccccc12 [Example 131] | < 100 nM
CC(C)(C)n1cc(C(=O)N[C@@H](CC2CC2)C(=O)N2C[C@]3(C[C@H]2C#N)C(=O)Nc2ccccc23)cn1 [Example 132] | < 100 nM
CC(C)(C)C[C@H](NC(=O)c1cnn(C(C)(C)C)c1)C(=O)N1C[C@]2(C[C@H]1C#N)C(=O)Nc1ccccc12 [Example 133] | < 100 nM
CC(C)(C)C[C@H](NC(=O)c1ccc2ncc(C(F)(F)F)cc2c1)C(=O)N1C[C@]2(C[C@H]1C#N)C(=O)Nc1ccccc12 [Example 134] | 100 to 1000 nM
Cc1cnc2ccc(C(=O)N[C@@H](CC(C)(C)C)C(=O)N3C[C@]4(C[C@H]3C#N)C(=O)Nc3ccccc34)cc2c1 [Example 135] | < 100 nM
CC(C)(C)C[C@H](NC(=O)c1ccc2ncc(C3CC3)cc2c1)C(=O)N1C[C@]2(C[C@H]1C#N)C(=O)Nc1ccccc12 [Example 136] | < 100 nM
CC(C)(C)C[C@H](NC(=O)c1cc(OC(F)(F)F)c2ncccc2c1)C(=O)N1C[C@]2(C[C@H]1C#N)C(=O)Nc1ccccc12 [Example 137] | < 100 nM
CC(C)(C)C[C@H](NC(=O)c1cc(Cl)c2ncccc2c1)C(=O)N1C[C@]2(C[C@H]1C#N)C(=O)Nc1ccccc12 [Example 138] | < 100 nM
CC(C)(C)C[C@H](NC(=O)c1cc(OC(F)F)c2ncccc2c1)C(=O)N1C[C@]2(C[C@H]1C#N)C(=O)Nc1ccccc12 [Example 139] | < 100 nM
CC(C)(C)C[C@H](NC(=O)c1cn(-c2ccc(Cl)cc2)nn1)C(=O)N1C[C@]2(C[C@H]1C#N)C(=O)Nc1ccccc12 [Example 140] | 100 to 1000 nM
CC(C)(C)C[C@H](NC(=O)c1cn(C2CC2)nn1)C(=O)N1C[C@]2(C[C@H]1C#N)C(=O)Nc1ccccc12 [Example 141] | < 100 nM
CC(C)(C)C[C@H](NC(=O)c1cn(-c2cccc(Cl)c2)nn1)C(=O)N1C[C@]2(C[C@H]1C#N)C(=O)Nc1ccccc12 [Example 142] | 100 to 1000 nM
CC(C)(C)C[C@H](NC(=O)c1cn(CC(F)(F)F)nn1)C(=O)N1C[C@]2(C[C@H]1C#N)C(=O)Nc1ccccc12 [Example 143] | < 100 nM
CC(C)(C)C[C@H](NC(=O)c1cnn(CC(F)(F)F)c1)C(=O)N1C[C@]2(C[C@H]1C#N)C(=O)Nc1ccccc12 [Example 144] | < 100 nM
CC(C)(C)C[C@H](NC(=O)c1cnn(-c2ccc(C(F)(F)F)cc2)c1)C(=O)N1C[C@]2(C[C@H]1C#N)C(=O)Nc1ccccc12 [Example 145] | < 100 nM

SMILES | IC50
Cc1cc2cc(C(=O)N[C@@H](CC(C)(C)C)C(=O)N3C[C@]4(C[C@H]3C#N)C(=O)Nc3ccccc34)cc(Cl)c2nc1C [Example 147] | < 100 nM
CC(C)(C)C[C@H](NC(=O)c1cn(C2CCC2)nn1)C(=O)N1C[C@]2(C[C@H]1C#N)C(=O)Nc1ccccc12 [Example 148] | < 100 nM
CC(C)C[C@@H](C(=O)N1C[C@]2(C[C@H]1C=O)C(=O)Nc1ccccc12)N(C)C(=O)c1cc2c(F)cc(F)cc2[nH]1 [Example 149] | < 100 nM
CC(C)C[C@@H](C(=O)N1C[C@]2(C[C@H]1C=O)C(=O)Nc1ccccc12)N(C)C(=O)c1cc2c(F)cc(F)c(F)c2[nH]1 [Example 150] | < 100 nM
CC(C)C[C@H](NC(=O)c1ccc(-c2ccccc2)[nH]1)C(=O)N1C[C@]2(C[C@H]1C#N)C(=O)Nc1ccccc12 [Example 151] | > 1000 nM
CC(C)C[C@@H](C(=O)N1C[C@]2(C[C@H]1C(O)S(=O)(=O)O)C(=O)Nc1ccccc12)N(C)C(=O)c1cc2c(F)cc(F)cc2[nH]1 (stereo partly drawn) [Example 153] | < 100 nM
CC(C)C[C@@H](C(=O)N1C[C@]2(C[C@H]1C(O)S(=O)(=O)O)C(=O)Nc1ccccc12)N(C)C(=O)c1cc2c(F)cc(F)c(F)c2[nH]1 (stereo partly drawn) [Example 154] | < 100 nM
CC(C)C[C@@H](C(=O)N1C[C@]2(C[C@H]1C(=O)C(=O)NC1CCCCC1)C(=O)Nc1ccccc12)N(C)C(=O)c1cc2c(F)cc(F)cc2[nH]1 [Example 155] | > 1000 nM
CC(C)C[C@@H](C(=O)N1C[C@]2(C[C@H]1C(=O)CO)C(=O)Nc1ccccc12)N(C)C(=O)c1cc2c(F)cc(F)cc2[nH]1 [Example 157] | > 1000 nM
CC(C)C[C@@H](C(=O)N1C[C@]2(C[C@H]1C(=O)CO)C(=O)Nc1ccccc12)N(C)C(=O)c1cc2c(F)cc(F)c(F)c2[nH]1 [Example 158] | > 1000 nM
CC(C)C[C@@H](C(=O)N1C[C@]2(C[C@H]1C(=O)CCl)C(=O)Nc1ccccc12)N(C)C(=O)c1cc2c(F)cc(F)c(F)c2[nH]1 [Example 159] | > 1000 nM
CC(C)C[C@@H](C(=O)N1C[C@]2(C[C@H]1C#N)C(=O)Nc1ccccc12)N(C(=O)OCc1ccccc1)C(C)C [Example 160] | > 1000 nM
CC(C)N(C(=O)OC(C)(C)C)[C@@H](Cc1ccccc1)C(=O)N1C[C@]2(C[C@H]1C#N)C(=O)Nc1ccccc12 [Example 161] | > 1000 nM
CC(C)C[C@@H](C(=O)N1C[C@]2(C[C@H]1C#N)C(=O)Nc1ccccc12)N(C)C(=O)c1ccccc1Cl [Example 162] | < 100 nM
CC(C)C[C@@H](C(=O)N1C[C@]2(C[C@H]1C#N)C(=O)Nc1ccccc12)N(C)C(=O)c1ccc(Cl)cc1 [Example 163] | 100 to 1000 nM
CC(C)C[C@@H](C(=O)N1C[C@]2(C[C@H]1C#N)C(=O)Nc1ccccc12)N(C)C(=O)c1cccc(F)c1Cl [Example 164] | < 100 nM
CC(C)C[C@@H](C(=O)N1C[C@]2(C[C@H]1C#N)C(=O)Nc1ccccc12)N(C)C(=O)c1ccc(C#N)c(Cl)c1 [Example 165] | 100 to 1000 nM
CC(C)C[C@@H](C(=O)N1C[C@]2(C[C@H]1C#N)C(=O)Nc1ccccc12)N(C)C(=O)c1ccc(Cl)c(Cl)c1 [Example 166] | < 100 nM
CC(C)C[C@@H](C(=O)N1C[C@]2(C[C@H]1C#N)C(=O)Nc1ccccc12)N(C)C(=O)c1cccc(Cl)c1 [Example 167] | < 100 nM
CC(C)C[C@@H](C(=O)N1C[C@]2(C[C@H]1C#N)C(=O)Nc1ccccc12)N(C)C(=O)c1ccc(Cl)cc1Cl [Example 168] | < 100 nM

SMILES | IC50
CC(C)C[C@@H](C(=O)N1C[C@]2(C[C@H]1C#N)C(=O)Nc1ccccc12)N(C)C(=O)c1c(Cl)ccc(Cl)c1F [Example 169] | < 100 nM
COc1ccc(Cl)cc1C(=O)N(C)[C@@H](CC(C)C)C(=O)N1C[C@]2(C[C@H]1C#N)C(=O)Nc1ccccc12 [Example 170] | < 100 nM
CC(C)C[C@@H](C(=O)N1C[C@]2(C[C@H]1C#N)C(=O)Nc1ccccc12)N(C)C(=O)c1cc(Cl)c(F)cc1F [Example 171] | < 100 nM
CC(C)C[C@@H](C(=O)N1C[C@]2(C[C@H]1C#N)C(=O)Nc1ccccc12)N(C)C(=O)c1cc(Cl)cc(Cl)c1 [Example 172] | < 100 nM
CC(C)C[C@@H](C(=O)N1C[C@]2(C[C@H]1C#N)C(=O)Nc1ccccc12)N(C)C(=O)c1cc(F)cc(Cl)c1 [Example 173] | < 100 nM
CC(C)C[C@@H](C(=O)N1C[C@]2(C[C@H]1C#N)C(=O)Nc1ccccc12)N(C)C(=O)c1ccc(Cl)c(C(F)(F)F)c1 [Example 174] | < 100 nM
CC(C)C[C@@H](C(=O)N1C[C@]2(C[C@H]1C#N)C(=O)Nc1ccccc12)N(C)C(=O)c1ccc(Cl)c(F)c1F [Example 175] | < 100 nM
CC(C)C[C@@H](C(=O)N1C[C@]2(C[C@H]1C#N)C(=O)Nc1ccccc12)N(C)C(=O)c1ccc(F)c(C(F)(F)F)c1 [Example 177] | < 100 nM
CC(C)C[C@@H](C(=O)N1C[C@]2(C[C@H]1C#N)C(=O)Nc1ccccc12)N(C)C(=O)c1ccc(F)c(F)c1 [Example 178] | < 100 nM
CC(C)C[C@@H](C(=O)N1C[C@]2(C[C@H]1C#N)C(=O)Nc1ccccc12)N(C)C(=O)c1ccc(OC(F)(F)F)c(F)c1 [Example 179] | < 100 nM
COc1ccc(C(=O)N(C)[C@@H](CC(C)C)C(=O)N2C[C@]3(C[C@H]2C#N)C(=O)Nc2ccccc23)cc1C(F)(F)F [Example 181] | < 100 nM
COc1ccc(C(=O)N(C)[C@@H](CC(C)C)C(=O)N2C[C@]3(C[C@H]2C#N)C(=O)Nc2ccccc23)cc1F [Example 182] | < 100 nM
CC(C)C[C@@H](C(=O)N1C[C@]2(C[C@H]1C#N)C(=O)Nc1ccccc12)N(C)C(=O)c1c(Cl)cc(Cl)cc1Cl [Example 185] | < 100 nM
CC(C)C[C@@H](C(=O)N1C[C@]2(C[C@H]1C#N)C(=O)Nc1ccccc12)N(C)C(=O)c1c(Cl)cc(F)cc1Cl [Example 186] | < 100 nM
CC(C)C[C@@H](C(=O)N1C[C@]2(C[C@H]1C#N)C(=O)Nc1ccccc12)N(C)C(=O)c1cc(Cl)cc(C#N)c1 [Example 187] | < 100 nM
CC(C)C[C@@H](C(=O)N1C[C@]2(C[C@H]1C#N)C(=O)Nc1ccccc12)N(C)C(=O)c1cccc(OC(F)F)c1 [Example 188] | < 100 nM
CC(C)C[C@@H](C(=O)N1C[C@]2(C[C@H]1C#N)C(=O)Nc1ccccc12)N(C)C(=O)c1cccc(OC(F)(F)F)c1 [Example 189] | 100 to 1000 nM
CC(C)C[C@@H](C(=O)N1C[C@]2(C[C@H]1C#N)C(=O)Nc1ccccc12)N(C)C(=O)c1ccc2c(c1)OC(F)(F)O2 [Example 190] | 100 to 1000 nM
COc1ccnc(C(=O)N(C)[C@@H](CC(C)C)C(=O)N2C[C@]3(C[C@H]2C#N)C(=O)Nc2ccccc23)c1 [Example 192] | 100 to 1000 nM
COc1ccc(C(=O)N(C)[C@@H](CC(C)C)C(=O)N2C[C@]3(C[C@H]2C#N)C(=O)Nc2ccccc23)nc1 [Example 193] | 100 to 1000 nM

Reference: patent publication US12540141B2, “Spiropyrrolidine derived antiviral agents” (priority 2020, dated 2026)
